The values that follow come from patent US9012489B2, “Phenyl-3-aza-bicyclo[3.1.0]hex-3-yl-methanones and the use thereof as medicament” (Boehringer Ingelheim International GmbH, priority 2011, dated 2015).

By IC50 is commonly meant the concentration that gives 50% inhibition. A lower IC50 goes with higher potency.

This assay addresses T1, GlyT1 transporter (Homo sapiens, UniProt P48067).
T1 construct: endogenously expressing the GlyT1 transporter; host or cells: SK-N-MC human neuroblastoma cells
T1 sequence (P48067 1-706): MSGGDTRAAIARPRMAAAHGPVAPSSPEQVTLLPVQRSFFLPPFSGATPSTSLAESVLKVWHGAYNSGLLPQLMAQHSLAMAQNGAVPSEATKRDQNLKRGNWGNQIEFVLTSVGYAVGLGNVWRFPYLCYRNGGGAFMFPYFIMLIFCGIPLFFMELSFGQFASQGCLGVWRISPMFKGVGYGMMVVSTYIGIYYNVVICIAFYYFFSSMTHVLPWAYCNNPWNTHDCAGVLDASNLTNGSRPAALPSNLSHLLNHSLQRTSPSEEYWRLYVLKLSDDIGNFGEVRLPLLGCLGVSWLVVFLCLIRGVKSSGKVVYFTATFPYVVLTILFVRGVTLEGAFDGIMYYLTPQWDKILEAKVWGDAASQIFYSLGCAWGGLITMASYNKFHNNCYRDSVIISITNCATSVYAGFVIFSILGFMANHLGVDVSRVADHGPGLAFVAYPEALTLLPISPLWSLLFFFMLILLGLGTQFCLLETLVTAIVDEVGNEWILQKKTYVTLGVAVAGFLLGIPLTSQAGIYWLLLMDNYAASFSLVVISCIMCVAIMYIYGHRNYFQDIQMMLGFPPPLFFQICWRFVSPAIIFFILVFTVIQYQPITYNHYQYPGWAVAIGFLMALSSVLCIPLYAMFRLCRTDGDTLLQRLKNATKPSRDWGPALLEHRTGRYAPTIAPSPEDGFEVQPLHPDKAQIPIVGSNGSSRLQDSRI
Kind of assay: GlyT1 assay: 3H-glycine uptake into SK-N-MC cells (Cytostar-T format). To be noted: glycine uptake in human SK-N-MC cells endogenously expressing GlyT1; 500 nM glycine, 1% DMSO, signal recorded over 60 min. In kind it is cell-based. An outline of the steps: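 Uptake slopes, measured over 60 min from the linear kinetic range, give IC50 from 8 compound concentrations, with 10 μM RG-1678 setting background. Substrate is 500 nM glycine (250 nM ³H, 250 nM unlabelled) in HBSS/5 mM alanine, 1% DMSO, after roughly 5-10 min compound preincubation. Cells: confluent SK-N-MC endogenously expressing human GlyT1.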
Turning to `C[C@H](Oc1ccc(S(C)(=O)=O)cc1C(=O)N1CC2CC2(c2csc(C(F)(F)F)n2)C1)C(F)(F)F` (mixture of isomers) [Example 26, [5-Methanesulfonyl-2-(2,2,2-trifluoro-1-methyl-ethoxy)-phenyl]-[1-(2-trifluoromethyl-thiazol-4-yl)-3-aza-bicyclo[3.1.0]hex-3-yl]-methanone], the IC50 is 8 nM. In other words, the single-digit nanomolar range. For `C[C@H](Oc1ccc(S(C)(=O)=O)cc1C(=O)N1CC2(C)CC2(c2noc(C(F)(F)F)n2)C1)C(F)(F)F` (single isomer, unassigned) [Example 159, [5-Methanesulfonyl-2-(2,2,2-trifluoro-1-methyl-ethoxy)-phenyl]-[1-methyl-5-(5-trifluoromethyl-[1,2,4]oxadiazol-3-yl)-3-aza-bicyclo[3.1.0]hex-3-yl]-methanone], the IC50 is 953 nM. The figure for `C[C@H](Oc1ccc(S(C)(=O)=O)cc1C(=O)N1CC2CC2(c2nnc(C3CC3)o2)C1)C(F)(F)F` (mixture of isomers) [Example 147, [1-(5-Cyclopropyl-[1,3,4]oxadiazol-2-yl)-3-aza-bicyclo[3.1.0]hex-3-yl]-[5-methanesulfonyl-2-(2,2,2-trifluoro-1-methyl-ethoxy)-phenyl]-methanone] is 18 nM; for `C[C@@H](Oc1ccc(S(C)(=O)=O)cc1C(=O)N1CC2CC2(c2ncc(C(F)(F)F)o2)C1)C(F)(F)F` (single isomer, unassigned) [Example 129, [5-Methanesulfonyl-2-(2,2,2-trifluoro-1-methyl-ethoxy)-phenyl]-[1-(5-trifluoromethyl-oxazol-2-yl)-3-aza-bicyclo[3.1.0]hex-3-yl]-methanone] it is 147 nM. The same measure for `Cc1nc(C23CC2CN(C(=O)c2cc(S(C)(=O)=O)ccc2O[C@@H](C)C(F)(F)F)C3)co1` (mixture of isomers) [Example 32, [5-Methanesulfonyl-2-(2,2,2-trifluoro-1-methyl-ethoxy)-phenyl]-[1-(2-methyl-oxazol-4-yl)-3-aza-bicyclo[3.1.0]hex-3-yl]-methanone]: 26 nM; for `C[C@H](Oc1ccc(S(C)(=O)=O)cc1C(=O)N1CC2CC2(c2coc(C3CC3)n2)C1)C(F)(F)F` (mixture of isomers) [Example 80, [1-(2-Cyclopropyl-oxazol-4-yl)-3-aza-bicyclo[3.1.0]hex-3-yl]-[5-methanesulfonyl-2-((S)-2,2,2-trifluoro-1-methyl-ethoxy)-phenyl]-methanone]: 3 nM. The same measure for `C[C@H](Oc1ccc(S(C)(=O)=O)cc1C(=O)N1CC2CC2(c2nocc2C(F)(F)F)C1)C(F)(F)F` (mixture of isomers) [Example 109, [5-Methanesulfonyl-2-(2,2,2-trifluoro-1-methyl-ethoxy)-phenyl]-[1-(4-trifluoromethyl-isoxazol-3-yl)-3-aza-bicyclo[3.1.0]hex-3-yl]-methanone]: 45 nM. As to `Cc1nc(C23CC2CN(C(=O)c2cc(S(C)(=O)=O)ccc2O[C@@H](C)C(F)(F)F)C3)cs1` (mixture of isomers) [Example 25, [5-Methanesulfonyl-2-(2,2,2-trifluoro-1-methyl-ethoxy)-phenyl]-[1-(2-methyl-thiazol-4-yl)-3-aza-bicyclo[3.1.0]hex-3-yl]-methanone], half-maximal inhibition (IC50) required 22 nM. The figure for `CCS(=O)(=O)c1ccc(O[C@@H](C)C(F)(F)F)c(C(=O)N2CC3CC3(c3nccc(C(F)(F)F)n3)C2)c1` (single isomer, unassigned) [Example 75, [5-Ethanesulfonyl-2-(2,2,2-trifluoro-1-methyl-ethoxy)-phenyl]-[1-(4-trifluoromethyl-pyrimidin-2-yl)-3-aza-bicyclo[3.1.0]hex-3-yl]-methanone] is 110 nM; for `C[C@@H](Oc1ccc(S(C)(=O)=O)cc1C(=O)N1CC2CC2(c2noc(C3CC3)n2)C1)C(F)(F)F` (mixture of isomers) [Example 41, [1-(5-Cyclopropyl-[1,2,4]oxadiazol-3-yl)-3-aza-bicyclo[3.1.0]hex-3-yl]-[5-methanesulfonyl-2-(2,2,2-trifluoro-1-methyl-ethoxy)-phenyl]-methanone] it is 6 nM.
